Assay type in all cases: biochemical
In one assay the target is hALDH1a2 (Homo sapiens (Human), UniProt O94788). Nature of the assay: Aldh1a2 enzyme inhibition assay (recombinant enzyme, resorufin fluorescence).
The next assay has as its target hALDH1a3 (Homo sapiens (Human), UniProt P47895). In words: Aldh1a3 enzyme inhibition assay (recombinant enzyme, resorufin fluorescence). The protocol: (§1) Cells were resuspended in 10 mM […] pH 7.4, 10 mM KCl. […] Recombinant enzyme and inhibitor added immediately before assay. Reaction rate measured by resorufin fluorescence.
The target of the next assay is mALDH1a3 (Mus musculus (Mouse), UniProt Q9JHW9). Described as above. The protocol: as §1
In another assay the target is mALDH1a2 (Mus musculus (Mouse), UniProt Q62148). In words: Aldh1a2 enzyme inhibition assay (recombinant enzyme, resorufin fluorescence). The source says:
Recombinant enzyme and inhibitor added immediately before assay. Reaction rate measured by resorufin fluorescence.

Read-outs that look alike come from different tables or passages of the source. Bounds are passed on as bounds.

mALDH1a3, sequence (Q9JHW9 whole entry): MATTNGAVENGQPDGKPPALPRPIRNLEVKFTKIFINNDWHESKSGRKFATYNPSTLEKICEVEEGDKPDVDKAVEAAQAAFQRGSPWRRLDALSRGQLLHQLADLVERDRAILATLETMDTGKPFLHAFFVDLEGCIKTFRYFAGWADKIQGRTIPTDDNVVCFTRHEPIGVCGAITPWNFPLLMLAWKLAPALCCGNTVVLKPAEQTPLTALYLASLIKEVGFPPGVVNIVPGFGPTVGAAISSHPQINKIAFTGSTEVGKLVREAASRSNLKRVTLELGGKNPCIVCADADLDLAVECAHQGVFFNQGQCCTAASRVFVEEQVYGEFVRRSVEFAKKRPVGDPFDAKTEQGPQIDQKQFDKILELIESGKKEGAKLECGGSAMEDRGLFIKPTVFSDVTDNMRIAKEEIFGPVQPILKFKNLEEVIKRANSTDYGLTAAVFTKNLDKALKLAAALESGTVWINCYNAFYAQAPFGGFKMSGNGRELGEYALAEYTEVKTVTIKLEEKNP
hALDH1a3, sequence (P47895 whole entry): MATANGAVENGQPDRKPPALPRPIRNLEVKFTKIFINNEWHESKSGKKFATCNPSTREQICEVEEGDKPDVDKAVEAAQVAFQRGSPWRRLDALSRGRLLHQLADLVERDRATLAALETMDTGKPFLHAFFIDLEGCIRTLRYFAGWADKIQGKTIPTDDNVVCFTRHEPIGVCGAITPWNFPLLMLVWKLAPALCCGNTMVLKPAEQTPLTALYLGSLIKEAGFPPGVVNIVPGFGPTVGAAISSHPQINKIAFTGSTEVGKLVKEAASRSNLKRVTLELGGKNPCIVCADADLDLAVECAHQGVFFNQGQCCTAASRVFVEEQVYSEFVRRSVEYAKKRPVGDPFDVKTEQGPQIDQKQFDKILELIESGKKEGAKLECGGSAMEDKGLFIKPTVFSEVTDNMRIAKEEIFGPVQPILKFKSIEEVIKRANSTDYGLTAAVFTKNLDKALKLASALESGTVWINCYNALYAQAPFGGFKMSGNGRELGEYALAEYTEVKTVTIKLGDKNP
mALDH1a2, sequence (Q62148 whole entry): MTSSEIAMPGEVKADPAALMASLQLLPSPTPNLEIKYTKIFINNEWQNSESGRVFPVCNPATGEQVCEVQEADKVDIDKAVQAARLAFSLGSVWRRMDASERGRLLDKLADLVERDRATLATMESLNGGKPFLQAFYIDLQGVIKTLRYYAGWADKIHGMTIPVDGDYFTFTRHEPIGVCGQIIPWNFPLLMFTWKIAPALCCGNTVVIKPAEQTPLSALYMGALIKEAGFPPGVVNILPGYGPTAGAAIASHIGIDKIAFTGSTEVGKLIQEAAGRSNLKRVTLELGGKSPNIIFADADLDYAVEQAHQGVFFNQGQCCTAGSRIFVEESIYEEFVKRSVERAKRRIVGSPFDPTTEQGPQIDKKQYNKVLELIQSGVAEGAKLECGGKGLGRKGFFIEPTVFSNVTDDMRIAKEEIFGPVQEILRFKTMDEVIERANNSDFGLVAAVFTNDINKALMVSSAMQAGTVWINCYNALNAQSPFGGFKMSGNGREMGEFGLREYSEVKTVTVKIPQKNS
hALDH1a2, sequence (O94788 whole entry): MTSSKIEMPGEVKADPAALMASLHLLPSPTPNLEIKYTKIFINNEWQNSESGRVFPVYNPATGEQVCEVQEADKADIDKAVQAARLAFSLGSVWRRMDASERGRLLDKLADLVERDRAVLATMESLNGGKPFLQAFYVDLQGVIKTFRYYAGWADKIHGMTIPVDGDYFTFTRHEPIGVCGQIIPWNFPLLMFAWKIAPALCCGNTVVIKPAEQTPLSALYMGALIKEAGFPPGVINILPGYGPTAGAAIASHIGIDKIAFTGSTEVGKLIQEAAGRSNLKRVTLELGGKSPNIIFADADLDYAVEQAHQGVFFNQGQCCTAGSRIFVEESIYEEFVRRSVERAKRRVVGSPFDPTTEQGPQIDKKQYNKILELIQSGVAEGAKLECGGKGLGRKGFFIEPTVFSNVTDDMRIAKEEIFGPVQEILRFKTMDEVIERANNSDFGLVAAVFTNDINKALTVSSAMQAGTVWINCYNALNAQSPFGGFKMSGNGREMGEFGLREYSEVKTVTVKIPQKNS

Broadly, the IC50 is the concentration that gives 50% inhibition. As for `Cc1cc(NC(=O)c2ccnc3c2CCN3)cc2c1NC(=O)CC2` [Compound 153, N-(8-methyl-2-oxo-3,4-dihydro-1H-quinolin-6-yl)-2,3-dihydro-1H-pyrrolo[2,3-b]pyridine-4-carboxamide], the IC50 on hALDH1a2 was 492 nM; at hALDH1a3 (read-out: hAldh1a3 IC50) it was 1000 to 5000 nM; at mALDH1a3 (read-out: mAldh1a3 IC50) it was 250 to 1000 nM; at mALDH1a2 it was 362 nM.

Turning to `O=C1CCc2cc(NC(=O)c3ccncc3CC(F)(F)F)ccc2N1` [Compound 53], the IC50 is 374 nM at hALDH1a2, less than 100 nM on hALDH1a3 (read-out: hAldh1a3 IC50), less than 100 nM at mALDH1a3 (read-out: mAldh1a3 IC50) and 494 nM at mALDH1a2.

In the case of `CCc1nnccc1C(=O)Nc1cc(C)c2c(c1)CCC(=O)N2` [Compound 166, 3-ethyl-N-(8-methyl-2-oxo-3,4-dihydro-1H-quinolin-6-yl) pyridazine-4-carboxamide], the IC50 on hALDH1a2 is 1600 nM; on hALDH1a3 (read-out: hAldh1a3 IC50) it was less than 100 nM; at mALDH1a3 (read-out: mAldh1a3 IC50), 250 to 1000 nM; on mALDH1a2, more than 10000 nM.

Regarding `Cc1cc(NC(=O)c2ccncc2CC2CCC2)cc2c1NC(=O)CC2` [Compound 155], the IC50 on hALDH1a2 was 835 nM; on hALDH1a3 (read-out: hAldh1a3 IC50), 250 to 1000 nM; on mALDH1a3 (read-out: mAldh1a3 IC50) it was 1000 to 5000 nM; on mALDH1a2, 1290 nM.

As for `CCc1cnccc1C(=O)Nc1cc2c(cn1)NC(=O)CC2` [Compound 159, 3-ethyl-N-(2-oxo-3,4-dihydro-1H-1,7-naphthyridin-6-yl)pyridine-4-carboxamide], the IC50 at hALDH1a2 was 2750 nM; at hALDH1a3 (read-out: hAldh1a3 IC50), 250 to 1000 nM; on mALDH1a3 (read-out: mAldh1a3 IC50) it was 250 to 1000 nM; at mALDH1a2, 3180 nM.

Regarding `CCc1cnccc1C(=O)Nc1cc2c(c(F)c1F)NC(=O)CC2` [Compound 143, N-(7,8-difluoro-2-oxo-3,4-dihydro-1H-quinolin-6-yl)-3-ethyl-pyridine-4-carboxamide], the IC50 on hALDH1a2 was 674 nM; on hALDH1a3 (read-out: hAldh1a3 IC50), less than 100 nM; at mALDH1a3 (read-out: mAldh1a3 IC50), less than 100 nM; at mALDH1a2, 594 nM.

Turning to `CCn1cncc1C(=O)Nc1ccc2c(c1)CCC(=O)N2` [Compound 49], the IC50 on hALDH1a2 was more than 10000 nM; on hALDH1a3 (read-out: hAldh1a3 IC50) it was more than 5000 nM; at mALDH1a3 (read-out: mAldh1a3 IC50), more than 5000 nM; on mALDH1a2 it was more than 10000 nM.

Consider `CCc1cnccc1C(=O)Nc1cc2c(c(C)c1C)NC(=O)CC2` [Compound 147, N-(7,8-dimethyl-2-oxo-3,4-dihydro-1H-quinolin-6-yl)-3-ethyl-pyridine-4-carboxamide], for which the half-inhibitory concentration (IC50) at hALDH1a2 was 431 nM; on hALDH1a3 (read-out: hAldh1a3 IC50), 100 to 250 nM; on mALDH1a3 (read-out: mAldh1a3 IC50), 250 to 1000 nM; at mALDH1a2, 358 nM.

`O=C1CCc2cc(NC(=O)c3ccncc3CC(F)(F)F)c(F)c(F)c2N1` [Compound 167, N-(7,8-difluoro-2-oxo-3,4-dihydro-1H-quinolin-6-yl)-3-(2,2,2-trifluoroethyl) pyridine-4-carboxamide]: the IC50 is 754 nM on hALDH1a2, less than 100 nM on hALDH1a3 (read-out: hAldh1a3 IC50), less than 100 nM at mALDH1a3 (read-out: mAldh1a3 IC50) and 815 nM on mALDH1a2.

Take `O=C1CCc2cc(NC(=O)c3ccncc3CC(F)(F)F)cc(Cl)c2N1` [Compound 168, N-(8-chloro-2-oxo-3,4-dihydro-1H-quinolin-6-yl)-3-(2,2,2-trifluoroethyl) pyridine-4-carboxamide]: the IC50 was determined as 70 nM at hALDH1a2 and 92 nM at mALDH1a2.

For the compound `CCc1cnccc1C(=O)Nc1cc2c(c(C)c1F)NC(=O)CC2` [Compound 146, 3-ethyl-N-(7-fluoro-8-methyl-2-oxo-3,4-dihydro-1H-quinolin-6-yl)pyridine-4-carboxamide], the IC50 is 356 nM at hALDH1a2, less than 100 nM at hALDH1a3 (read-out: hAldh1a3 IC50), less than 100 nM on mALDH1a3 (read-out: mAldh1a3 IC50) and 405 nM on mALDH1a2.

In the case of `CCc1cnc(Cl)cc1C(=O)Nc1ccc2c(c1)CCC(=O)N2` [Compound 77], the figures for the IC50 at hALDH1a2 and at mALDH1a2 were 415 nM and 333 nM, respectively.

In the case of `CCc1cnccc1C(=O)Nc1cnc2c(c1)CCC(=O)N2` [Compound 154, 3-ethyl-N-(7-oxo-6,8-dihydro-5H-1,8-naphthyridin-3-yl)pyridine-4-carboxamide], the IC50 on hALDH1a2 is 4750 nM; at hALDH1a3 (read-out: hAldh1a3 IC50) it was 1000 to 5000 nM; at mALDH1a3 (read-out: mAldh1a3 IC50), 250 to 1000 nM; on mALDH1a2 it was 8170 nM.

Take `CCc1cnccc1C(=O)Nc1cc2c(cc1C)NC(=O)CC2` [Compound 83]: the IC50 is 9000 nM on hALDH1a2, 100 to 250 nM at hALDH1a3 (read-out: hAldh1a3 IC50), 1000 to 5000 nM on mALDH1a3 (read-out: mAldh1a3 IC50) and 3500 nM at mALDH1a2.

Regarding `CCC1COCCN1C(=O)Nc1cc(C)c2c(c1)CCC(=O)N2` (racemic) [Compound 193], the IC50 at hALDH1a3 (read-out: hAldh1a3 IC50) and on mALDH1a3 (read-out: mAldh1a3 IC50) was more than 5000 nM in each case.

Turning to `CCc1cnccc1C(=O)Nc1cc2c(cc1F)NC(=O)CC2` [Compound 1], the IC50 on hALDH1a2 is 3330 nM; at hALDH1a3, 100 to 250 nM; on mALDH1a3 it was 100 to 250 nM; at mALDH1a2, 3330 nM.

Regarding `CCc1cnccc1C(=O)Nc1cc(C#N)c2c(c1)CCC(=O)N2` [Compound 139, N-(8-cyano-2-oxo-3,4-dihydro-1H-quinolin-6-yl)-3-ethyl-pyridine-4-carboxamide], the IC50 was 10000 nM at hALDH1a2, 100 to 250 nM on hALDH1a3 (read-out: hAldh1a3 IC50), less than 100 nM at mALDH1a3 (read-out: mAldh1a3 IC50) and 1480 nM at mALDH1a2.

On to `CCc1cnccc1C(=O)Nc1ccc2c(c1)CCC(=O)N2` [Compound 9], for which the IC50 was 587 nM on hALDH1a2, less than 100 nM at hALDH1a3 (read-out: hAldh1a3 IC50), 250 to 1000 nM on mALDH1a3 (read-out: mAldh1a3 IC50) and 1110 nM on mALDH1a2.

Consider `CCc1cnccc1C(=O)Nc1cc(F)c2c(c1)CCC(=O)N2` [Compound 141, 3-ethyl-N-(8-fluoro-2-oxo-3,4-dihydro-1H-quinolin-6-yl)pyridine-4-carboxamide], for which the IC50 on hALDH1a2 was 289 nM; on hALDH1a3 (read-out: hAldh1a3 IC50), less than 100 nM; on mALDH1a3 (read-out: mAldh1a3 IC50), less than 100 nM; on mALDH1a2, 180 nM.

Turning to `Cc1cc(Nc2cnc3ccccc3n2)cc2c1NC(=O)C(C)(C)C2` [Compound 161, 3,3,8-trimethyl-6-(quinoxalin-2-ylamino)-1,4-dihydroquinolin-2-one], the IC50 at hALDH1a2 was 89 nM; at hALDH1a3 (read-out: hAldh1a3 IC50) it was more than 5000 nM; on mALDH1a3 (read-out: mAldh1a3 IC50) it was 250 to 1000 nM; at mALDH1a2, 114 nM.

As to `CCc1cnc(Cl)cc1C(=O)Nc1cc(C)c2c(c1)CCC(=O)N2` [Compound 150, 2-chloro-5-ethyl-N-(8-methyl-2-oxo-3,4-dihydro-1H-quinolin-6-yl)pyridine-4-carboxamide], the IC50 was 121 nM on hALDH1a2, less than 100 nM at hALDH1a3 (read-out: hAldh1a3 IC50), less than 100 nM at mALDH1a3 (read-out: mAldh1a3 IC50) and 131 nM at mALDH1a2.

For the compound “2-ethyl-N-(8-methyl-2-oxo-3,4-dihydro-1H-quinolin-6-yl) piperazine-1-carboxamide [Compound 192]”, the IC50 was more than 10000 nM on hALDH1a2, more than 5000 nM on hALDH1a3 (read-out: hAldh1a3 IC50), more than 5000 nM on mALDH1a3 (read-out: mAldh1a3 IC50) and more than 10000 nM at mALDH1a2.

For the compound `CCc1cnccc1C(=O)Nc1cc(CC)c2c(c1)CCC(=O)N2` [Compound 144, 3-ethyl-N-(8-ethyl-2-oxo-3,4-dihydro-1H-quinolin-6-yl)pyridine-4-carboxamide], the IC50 is 304 nM on hALDH1a2, less than 100 nM at hALDH1a3 (read-out: hAldh1a3 IC50), less than 100 nM at mALDH1a3 (read-out: mAldh1a3 IC50) and 462 nM on mALDH1a2.

On to `Cc1cc(NC(=O)c2ccncc2CC2CC2)cc2c1NC(=O)CC2` [Compound 149, 3-(cyclopropylmethyl)-N-(8-methyl-2-oxo-3,4-dihydro-1H-quinolin-6-yl)pyridine-4-carboxamide], for which the half-maximal inhibitory concentration (IC50) is less than 100 nM at hALDH1a3 (read-out: hAldh1a3 IC50), less than 100 nM on mALDH1a3 (read-out: mAldh1a3 IC50) and 118 nM on mALDH1a2.

The record behind these values is patent US12054475B2, “Substituted heterocycles as aldehyde dehydrogenase inhibitors” (KayoThera Inc., priority 2021, dated 2024).
